The NIST ThermoML archive (doi:10.1016/j.tca.2012.03.001)
Numbers after ± are expanded uncertainties.

Assays:
[1] = Liquid; for viscosity: 101 kPa; for mass density: 101.33 kPa, Pycnometric method
[2] = xn = mol fraction of the nth substance listed; settings: 101 kPa, Liquid

CCOCCO [2-ethoxyethan-1-ol]
[1]
Settings | mass density [kg/m3] | viscosity [mPa·s]
303.15 K | 921.19 ± 0.76 | 1.654 ± 0.025
308.15 K | 916.43 ± 0.77 | 1.482 ± 0.023
313.15 K | 911.58 ± 0.72 | 1.306 ± 0.02
318.15 K | 907.76 ± 0.7 | 1.231 ± 0.019
323.15 K | 903.45 ± 0.73 | 1.116 ± 0.018

CCOCCO [2-ethoxyethan-1-ol] + NC=O
viscosity [mPa·s], [2]
Settings | x2 = 0 | x2 = 0.0975 | x2 = 0.2009 | x2 = 0.2984 | x2 = 0.4047 | x2 = 0.5054 | x2 = 0.6055 | x2 = 0.7092 | x2 = 0.8063 | x2 = 0.9074
303.15 K | 1.654 ± 0.025 | 1.996 ± 0.03 | 2.306 ± 0.035 | 2.58 ± 0.038 | 2.873 ± 0.043 | 3.162 ± 0.047 | 3.409 ± 0.051 | 3.509 ± 0.052 | 3.495 ± 0.052 | 3.306 ± 0.05
308.15 K | 1.482 ± 0.023 | 1.79 ± 0.027 | 2.017 ± 0.03 | 2.24 ± 0.034 | 2.49 ± 0.037 | 2.735 ± 0.041 | 2.968 ± 0.044 | 3.043 ± 0.046 | 3.007 ± 0.045 | 2.867 ± 0.044
313.15 K | 1.306 ± 0.02 | 1.564 ± 0.024 | 1.786 ± 0.027 | 1.986 ± 0.03 | 2.221 ± 0.034 | 2.466 ± 0.037 | 2.659 ± 0.04 | 2.718 ± 0.041 | 2.692 ± 0.041 | 2.583 ± 0.04
318.15 K | 1.231 ± 0.019 | 1.437 ± 0.022 | 1.599 ± 0.025 | 1.751 ± 0.027 | 1.957 ± 0.03 | 2.154 ± 0.033 | 2.298 ± 0.035 | 2.363 ± 0.036 | 2.353 ± 0.036 | 2.202 ± 0.034
323.15 K | 1.116 ± 0.018 | 1.281 ± 0.02 | 1.415 ± 0.022 | 1.533 ± 0.024 | 1.709 ± 0.026 | 1.891 ± 0.029 | 2.041 ± 0.031 | 2.1 ± 0.032 | 2.094 ± 0.032 | 1.954 ± 0.03

COCCO [2-methoxyethan-1-ol]
[1]
Settings | mass density [kg/m3] | viscosity [mPa·s]
303.15 K | 955.72 ± 0.75 | 1.421 ± 0.022
308.15 K | 951.11 ± 0.77 | 1.249 ± 0.02
313.15 K | 946.27 ± 0.78 | 1.173 ± 0.019
318.15 K | 941.64 ± 0.78 | 1.079 ± 0.017
323.15 K | 936.88 ± 0.79 | 0.9347 ± 0.015

COCCO [2-methoxyethan-1-ol] + NC=O
[2], x2 = 0
Settings | viscosity [mPa·s]
303.15 K | 1.421 ± 0.022
308.15 K | 1.249 ± 0.02
313.15 K | 1.173 ± 0.019
318.15 K | 1.079 ± 0.017
323.15 K | 0.9347 ± 0.015

NC=O [formamide]
[1]
Settings | mass density [kg/m3] | viscosity [mPa·s]
303.15 K | 1124.57 ± 0.94 | 2.877 ± 0.044
308.15 K | 1120.19 ± 0.97 | 2.544 ± 0.039
313.15 K | 1115.22 ± 0.98 | 2.356 ± 0.036
318.15 K | 1110.95 ± 1 | 2.061 ± 0.032
323.15 K | 1105.47 ± 1.1 | 1.835 ± 0.029

NC=O [formamide] + CCOCCO
[2], x1 = 1
Settings | viscosity [mPa·s]
303.15 K | 2.877 ± 0.044
308.15 K | 2.544 ± 0.039
313.15 K | 2.356 ± 0.036
318.15 K | 2.061 ± 0.032
323.15 K | 1.835 ± 0.029

NC=O [formamide] + COCCO
viscosity [mPa·s], [2]
Settings | x1 = 0.1785 | x1 = 0.2723 | x1 = 0.3849 | x1 = 0.4862 | x1 = 0.5726 | x1 = 0.6651 | x1 = 0.7492 | x1 = 0.8363 | x1 = 0.9138 | x1 = 1
303.15 K | 1.795 ± 0.027 | 1.993 ± 0.03 | 2.237 ± 0.034 | 2.47 ± 0.037 | 2.665 ± 0.04 | 2.849 ± 0.043 | 2.927 ± 0.044 | 2.968 ± 0.045 | 2.965 ± 0.045 | 2.877 ± 0.044
308.15 K | 1.573 ± 0.024 | 1.749 ± 0.027 | 1.966 ± 0.03 | 2.158 ± 0.033 | 2.322 ± 0.035 | 2.504 ± 0.038 | 2.593 ± 0.039 | 2.614 ± 0.04 | 2.609 ± 0.04 | 2.544 ± 0.039
313.15 K | 1.453 ± 0.023 | 1.623 ± 0.025 | 1.813 ± 0.028 | 1.988 ± 0.03 | 2.131 ± 0.033 | 2.264 ± 0.035 | 2.323 ± 0.036 | 2.361 ± 0.036 | 2.36 ± 0.036 | 2.356 ± 0.036
318.15 K | 1.313 ± 0.021 | 1.46 ± 0.023 | 1.626 ± 0.025 | 1.769 ± 0.027 | 1.885 ± 0.029 | 1.988 ± 0.031 | 2.046 ± 0.032 | 2.07 ± 0.032 | 2.057 ± 0.032 | 2.061 ± 0.032
323.15 K | 1.129 ± 0.018 | 1.27 ± 0.02 | 1.421 ± 0.022 | 1.566 ± 0.025 | 1.661 ± 0.026 | 1.75 ± 0.027 | 1.806 ± 0.028 | 1.842 ± 0.029 | 1.83 ± 0.029 | 1.835 ± 0.029
